Like-named read-outs stand apart in the source and are kept apart here.

The values below come from patent US12377111B2, “Composition, comprising thiamine derivative, for prevention or treatment of hypercortisolemia” (KYUNGPOOK NATIONAL UNIVERSITY INDUSTRY-ACADEMIC COOPERATION …, priority 2018, dated 2025).

One assay concerns 8-week-old male mice. Particulars: for corticosterone concentration: serum, oral 24 h and 2 h before stress. The protocol: For the restraint stress test, 8-week-old male mice were used, and were orally administered with fursultiamine once 24 hours before and once 2 hours before stress induction. For induction of stress, the mice were individually placed head-first into well-ventilated 50 mL polypropylene tubes, which were then tied with a cap of the 50 mL tube, and the mice were confined for 2 hours. Before stress induction, 1 hour and 2 hours after induction, and at 1 hour of recovery, blood was collected from the tail vein and serum was isolated, and then the concentration of corticosterone was measured using ELISA kit.

A further assay concerns CRH-overexpressed mice. Here is the method: To investigate high-cortisol inhibitory effects, C57BL/6J normal mice (WT-con) aged 8 to 9 weeks and corticotropin-releasing hormone (CRH)-overexpressed mice, which are Cushing's syndrome animal models, were used. One group of CRH-overexpressed mice were orally administered with 60 mg/kg fursultiamine once a day for 9 weeks (CRH tg-Fur 60 mpk).
During this period, the body weight change was monitored by measuring body weights once a week. To check the concentration of corticosterone (in cases of rodents), blood was collected from the tail vein and serum was isolated. The concentration of corticosterone was measured from the isolated serum by using an enzyme-linked immunosorbent assay (ELISA) kit (Enzo Life Sciences, Inc., NY, USA). The fat mass was measured 6 weeks after administration of the drug by using a body composition analyzer (MiniSpec LF 50, Bruker Optics, Germany), and the fat distribution was again monitored with micro CT images 8 weeks after administration.

A further assay has as its system NCI-H295R cells. The assay can be described thus: Cortisol production in 8-Br-cAMP-stimulated NCI-H295R cells (ELISA). The format is cell-based, human. Conditions: for Cortisol production concentration: 0.5 mM 8-Br-cAMP, 12 h pretreatment + 24 h; for Cortisol production concentration / inhibition of cortisol production increased by 0.5 mM 8-Br-cAMP (in words): NCI-H295R; for reduction in cortisol production: compared with non-treatment group (with 8-Br-cAMP treatment); for inhibition of cortisol production increased by 0.5 mM 8-Br-cAMP (in words): 20, 50, 100 μM. Here is the method: Cortisol secretion inhibitory effects by allithiamine (Shanghai iChemical Technology CO., LTD., China), fursultiamine (Toronto Research Chemicals, Canada), or benfotiamine (Sigma-Aldrich, St. Louis, MO, USA), which are thiamine (vitamin B1) based compounds, were tested. For this, cortisol reduction effects in adrenal tumors that excessively secret cortisol were measured.
NCI-H295R (ATCC #CRL-2128) cells, a human adrenocortical carcinoma cell line, were dispensed into 24-well plates at 2.5×10^5 cells/well. Then, the cells were incubated in DMEM/F12 growth media containing 2.5% Nu-serum, 1% ITS (insulin, transferrin, and selenium), bovine serum albumin (BSA), linoleic acid, and penicillin/streptomycin for 48 hours.
Thereafter, the media were exchanged with serum-free media, and then the NCI-H295R cells were pretreated with allithiamine, fursultiamine, or benfotiamine at concentrations of 20 μM, 50 μM, and 100 μM for 12 hours. The cells were treated with 8-bromoadenosine 3′,5′-cyclic monophosphate (8-Br-cAMP) at a concentration of 0.5 mM to increase cortisol synthesis, and again treated with allithiamine, fursultiamine, or benfotiamine at 20 μM, 50 μM, and 100 μM, followed by reaction for 24 hours. After the reaction, cell cultures were collected, and the amount of cortisol produced in the cells was measured using an enzyme-linked immunosorbent assay (ELISA) kit (Enzo Life Sciences, Inc., NY, USA).
A general note: ELISA stands for enzyme-linked immunosorbent assay.

`CC(=C(CCO)SSCC1CCCO1)N(C=O)Cc1cnc(C)nc1N` (stereo in doubt) [fursultiamine]: in the assay with 8-week-old male mice (restraint stress, oral administration), the “rate of increase in corticosterone level after stress induction (in words)” value is reported as “rate of increase in corticosterone level decreased”. Also, the corticosterone concentration turned out to be 63.6 in the assay on 8-week-old male mice (0 min (before stress induction)), 260.4 in the assay on 8-week-old male mice (60 min (1 hour after stress induction)), 261.4 with 8-week-old male mice (120 min (2 hours after stress induction)) and 105.8 in the assay with 8-week-old male mice (180 min (1 hour of recovery)). The “corticosterone synthesis concentration (in words)” value in the assay with CRH-overexpressed mice (CRH-overexpressed mice, 60 mg/kg oral) is listed as “smaller compared with the normal group”. Moreover, the “fat mass, Body weight (%)” value with CRH-overexpressed mice (CRH-overexpressed mice, 60 mg/kg oral once a day, 6 weeks after administration, body composition analyzer) was 23.4%. In the assay on CRH-overexpressed mice (CRH-overexpressed mice, 60 mg/kg oral, 9 weeks, vs CRH-overexpressed control), the “increase in body weight (in words)” value is listed as “smaller increase in body weight compared with the control”. In the assay with CRH-overexpressed mice (CRH-overexpressed mice, 60 mg/kg oral, vs control), the “fat mass (in words)” value is “smaller compared with the control”. Moreover, the Corticosterone with CRH-overexpressed mice (serum, CRH-overexpressed mice, 60 mg/kg oral once a day) amounted to 87.1 ng/mL. For the same molecule, the body weight is 18.4 in the assay on CRH-overexpressed mice (week 0, CRH-overexpressed mice, 60 mg/kg oral once a day); 17.8 with CRH-overexpressed mice (week 1, CRH-overexpressed mice, 60 mg/kg oral once a day); 17.8 with CRH-overexpressed mice (week 2, CRH-overexpressed mice, 60 mg/kg oral once a day); 18.2 in the assay with CRH-overexpressed mice (week 3, CRH-overexpressed mice, 60 mg/kg oral once a day); 18.1 with CRH-overexpressed mice (week 4, CRH-overexpressed mice, 60 mg/kg oral once a day); 18.4 in the assay on CRH-overexpressed mice (week 5, CRH-overexpressed mice, 60 mg/kg oral once a day). The body weight is given as 17.9 in the assay on CRH-overexpressed mice (week 6, CRH-overexpressed mice, 60 mg/kg oral once a day); 19.8 in the assay with CRH-overexpressed mice (week 7, CRH-overexpressed mice, 60 mg/kg oral once a day); 19.7 in the assay with CRH-overexpressed mice (week 8, CRH-overexpressed mice, 60 mg/kg oral once a day); 19.2 with CRH-overexpressed mice (week 9, CRH-overexpressed mice, 60 mg/kg oral once a day). The Cortisol production concentration in the assay on NCI-H295R cells (20 μM compound) came out at 14.1 ng/mL; with NCI-H295R cells (50 μM compound), 9.0 ng/mL; in the assay on NCI-H295R cells (100 μM compound), 7.5 ng/mL. The figures for the “reduction in cortisol production” value in the assay with NCI-H295R cells (50 μM) and in the assay with NCI-H295R cells (100 μM) were 43% and 52.4%, respectively. Also, the “inhibition of cortisol production increased by 0.5 mM 8-Br-cAMP (in words)” value with NCI-H295R cells was “significantly inhibited the cortisol production”.
As to `C=CCSS/C(CCO)=C(/C)N(C=O)Cc1cnc(C)nc1N` [allithiamine], the values for the Cortisol production concentration in the assay with NCI-H295R cells (20 μM compound), in the assay on NCI-H295R cells (50 μM compound) and in the assay with NCI-H295R cells (100 μM compound) were 10.5 ng/mL, 6.4 ng/mL and 2.8 ng/mL, respectively. Also, the “reduction in cortisol production” value with NCI-H295R cells (50 μM) stood at 50.7%; in the assay on NCI-H295R cells (100 μM), 78.7%. In addition, the “inhibition of cortisol production increased by 0.5 mM 8-Br-cAMP (in words)” value in the assay with NCI-H295R cells was “significantly inhibited the cortisol production”.
As for `C/C(=C(\CCOP(=O)(O)O)SC(=O)c1ccccc1)N(C=O)Cc1cnc(C)nc1N` [benfotiamine], the results for the Cortisol production concentration in the assay on NCI-H295R cells (20 μM compound), in the assay on NCI-H295R cells (50 μM compound) and with NCI-H295R cells (100 μM compound) were 14.0 ng/mL, 12.0 ng/mL and 8.6 ng/mL, respectively. The “reduction in cortisol production” value in the assay with NCI-H295R cells (50 μM) is on record as 22.6%; with NCI-H295R cells (100 μM), 44.3%. For the same molecule, the “inhibition of cortisol production increased by 0.5 mM 8-Br-cAMP (in words)” value in the assay on NCI-H295R cells is given as “significantly inhibited the cortisol production”.
